Results published in PMC8694685 (RSC Advances, 2021).

How the values were obtained:
[1] = tested on: red blood cells; assay: Hemolysis test; format: cell-based, mouse; conditions: 0.15–5 mg mL^−1, 37 °C, 1 hour
Protocol: The mixture was then centrifuged at 3000 rpm for 10 min. Finally, UV spectrophotometer was used to monitor the absorbance at 541 nm to investigate the hemolysis. Deionized water and 0.9% NaCl were used as the positive and negative control, respectively. The hemolysis ratio was calculated as following: [drawing 4] […]

[2] = In vivo pharmacokinetics study, tail vein; set-up: species or system SD rats; conditions: SD, rat, plasma; intravenous, 17 mg kg^−1 Cur, n = 3
Protocol: Pharmacokinetics were studied in SD rats. SD rats were randomly divided into three groups with each group of three rats. […] Blood samples (0.5 mL) were extracted from the rat orbital sinus into heparinized centrifuge tubes at 3, 5, 10, 15, 30, 45, 60, 120 min and then centrifuged at 8000 rpm for 5 min to obtain the upper plasma. After that, Cur in plasma samples were extracted by adding ethyl acetate and vertexing for 5 min, then centrifuged at 5000 rpm for 5 min to get supernatant. Finally, the amount of Cur in the supernatant was measured by high-performance liquid chromatography (HPLC) based on established analytical method (SI). Various pharmacokinetic parameters (AUC, MRT, t1/2, Cmax, CL, and V) were calculated according to the analysis of DAS3.0 software.

[3] = tested on: liver fibrosis; assay: In vivo pharmacodynamic experiment, CCl4 liver fibrosis model; conditions: CCl4 mice, tail vein twice a week for eight weeks, Cur 17 mg kg^−1
Protocol: The mice were divided into five groups with five in each group randomly. The liver fibrosis model was established by injecting carbon tetrachloride (CCl4, 40% in olive oil, 1 mL kg^−1) intraperitoneally twice a week for four weeks. The mice were only administrated the same dosage of olive oil in control group. […] After treatment through veil tail, the mice were sacrificed and blood and livers were collected for the following study. After embedding in paraffin, the liver samples were cut into 5 μm slices. Then, liver slices were stained with hematoxylin–eosin staining (H&E) and Sirius Red staining solution for 2 h. After dehydration and fixation, the slices were observed and photographed by microscope.

[4] = In vitro release of curcumin, membrane dialysis; format: physicochemical; conditions: 30% ethanol in PBS pH7.4, 37 °C
Protocol: The membrane dialysis method was used for the drug release profile of CTPP–PEG–PCT. […] The end-sealed dialysis bag was placed in 30% ethanol in PBS (0.1 M, pH7.4) was used as dissolution medium at 37 °C, and medium was collected at determined time point. The amount of Cur released in the medium was monitored by UV-vis spectroscopy, and the experiments were repeated for three times.

## COc1cc(/C=C/C(=O)CC(=O)/C=C/c2ccc(O)c(OC)c2)ccc1O [Cur, Curcumin]
[1]
  hemolysis ratio: less than 5%
[2]
  AUC(0-inf): 5610 ng·h/mL
  AUC(0-t): 5280 ng·h/mL
  Cmax: 12900 ± 1510 ng/mL
  MRT: 45.9 min
  clearance: 50 ± 6 mL/min/kg
  half-life: 48.1 ± 14.8 min
[3]
  serum levels of AST and ALT vs saline group: decreased significantly
[4]
  in vitro drug release behaviour: released quickly
